Reference: patent US11357769B2, “Drug combinations for reducing cell viability and/or cell proliferation” (Eisai R&D Management Co., Ltd., priority 2016, dated 2022)

System: Hep3B xenograft
Experiment: Antitumor activity in Hep3B xenograft model of hepatocellular carcinoma
Format: in vivo, mice
Details: 17 days
Experimental: The human hepatocellular cancer cell line Hep3B was cultured in RPMI1640 medium containing 10% fetal bovine serum at 37° C. in a 5% CO2 atmosphere and kept in exponential growth phase. […] When the mean tumor volume (TV) reached approximately 170 mm^3 (10 days after implantation), 56 mice were selected based on their TVs, and were sorted into 7 treatment groups with 8 animals per group. […] Body weights were measured daily and tumor measurements were performed twice weekly.
[formula] where Day X is any day of measurement.
The anti-tumor effects of the treatment, Partial (PR) and complete regression (CR), stable (SD) and progressive (PD) disease were defined by the H3 Xenograft Model Response Criteria (Appendix 4). […] The relative body weight changes were analyzed by two way ANOVA followed by Dunnett's post hoc.

## C=CC(=O)Nc1cc(N2CCN(CC)CC2)ccc1Nc1cc(N(C)C(=O)Nc2c(Cl)c(OC)cc(OC)c2Cl)ncn1 [Compound 1, N-(2-((6-(3-(2,6-dichloro-3,5-dimethoxyphenyl)-1-methylureido)pyrimidin-4-yl)amino)-5-(4-ethylpiperazin-1-yl)phenyl)acrylamide]
Compound 1 single agent 100 mg/kg PO
  Tumor Growth Inhibition (TGI): 16%
Compound 1 single agent 300 mg/kg PO, p<0.05 vs vehicle
  Tumor Growth Inhibition (TGI): 64%
